Tested on: HCT116 colorectal cancer cells
Assay: Cisplatin sensitization assay (96 h cell viability MTS);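 note: compound concentration needed to lower the Cisplatin-alone IC50 by a set fold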
Type: cell-based
Conditions: 96 h MTS, compound plus Cisplatin
Outline: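 Test compound and cisplatin were added together as a full matrix of 2-fold serial dilutions, each from a top final concentration of 10 μM. Cells were incubated 96 h at 37° C in 5% CO2, then viability was read by MTS after a further 1 h incubation.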

Structure (SMILES) | Cisplatin Sensitization Assay
CN1CCN(c2ccncc2NC(=O)c2c(N)nn3cc(F)cnc23)CC1=O [I-N-209, 2-amino-6-fluoro-N-(4-(4-methyl-3-oxopiperazin-1-yl)pyridin-3-yl)pyrazolo[1,5-a]pyrimidine-3-carboxamide] | +++ (Compounds with a Cisplatin sensitization value of <0.02 μM are marked with “+++.”)
Nc1nn2cc(F)cnc2c1C(=O)Nc1cnccc1N1CCS(=O)(=O)CC1 [I-N-210, 2-amino-N-(4-(1,1-dioxidothiomorpholino)pyridin-3-yl)-6-fluoropyrazolo[1,5-a]pyrimidine-3-carboxamide] | +++ (Compounds with a Cisplatin sensitization value of <0.02 μM are marked with “+++.”)
Nc1nn2cc(F)cnc2c1C(=O)Nc1cncc(F)c1N1CCN(C(=O)C2CCN(C3COC3)CC2)CC1 [I-N-211, 2-amino-6-fluoro-N-(5-fluoro-4-(4-(1-(oxetan-3-yl)piperidine-4-carbonyl)piperazin-1-yl)pyridin-3-yl)pyrazolo[1,5-a]pyrimidine-3-carboxamide] | ++ (Compounds with a Cisplatin sensitization value >0.02 μM but <0.2 μM are marked with “++.”)
CN1CCN(c2c(F)cncc2NC(=O)c2c(N)nn3cc(F)cnc23)CC1=O [I-N-212, 2-amino-6-fluoro-N-(5-fluoro-4-(4-methyl-3-oxopiperazin-1-yl)pyridin-3-yl)pyrazolo[1,5-a]pyrimidine-3-carboxamide] | +++ (Compounds with a Cisplatin sensitization value of <0.02 μM are marked with “+++.”)
Nc1nn2cc(F)cnc2c1C(=O)Nc1cncc(F)c1N1CCC(CN2CCCC2=O)CC1 [I-N-213, 2-amino-6-fluoro-N-(5-fluoro-4-(4-((2-oxopyrrolidin-1-yl)methyl)piperidin-1-yl)pyridin-3-yl)pyrazolo[1,5-a]pyrimidine-3-carboxamide] | +++ (Compounds with a Cisplatin sensitization value of <0.02 μM are marked with “+++.”)
CN1CCCCC1C(=O)N1CCN(c2c(F)cncc2NC(=O)c2c(N)nn3cc(F)cnc23)CC1 (centres unmarked) [I-N-214, 2-amino-6-fluoro-N-(5-fluoro-4-(4-(1-methylpiperidine-2-carbonyl)piperazin-1-yl)pyridin-3-yl)pyrazolo[1,5-a]pyrimidine-3-carboxamide] | ++ (Compounds with a Cisplatin sensitization value >0.02 μM but <0.2 μM are marked with “++.”)
CS(=O)(=O)CC1CCN(c2ccncc2NC(=O)c2c(N)nn3cc(F)cnc23)CC1 [I-N-215, 2-amino-6-fluoro-N-(4-(4-((methylsulfonyl)methyl)piperidin-1-yl)pyridin-3-yl)pyrazolo[1,5-a]pyrimidine-3-carboxamide] | +++ (Compounds with a Cisplatin sensitization value of <0.02 μM are marked with “+++.”)
CN1CC2(CCN(c3ccncc3NC(=O)c3c(N)nn4cc(F)cnc34)CC2)OC1=O [I-N-216, 2-amino-6-fluoro-N-(4-(3-methyl-2-oxo-1-oxa-3,8-diazaspiro[4.5]decan-8-yl)pyridin-3-yl)pyrazolo[1,5-a]pyrimidine-3-carboxamide] | +++ (Compounds with a Cisplatin sensitization value of <0.02 μM are marked with “+++.”)
Nc1nn2cc(F)cnc2c1C(=O)Nc1cnccc1N1CCN2C(=O)CC[C@H]2C1 [I-N-217, (S)-2-amino-6-fluoro-N-(4-(6-oxohexahydropyrrolo[1,2-a]pyrazin-2(1H)-yl)pyridin-3-yl)pyrazolo[1,5-a]pyrimidine-3-carboxamide] | ++ (Compounds with a Cisplatin sensitization value >0.02 μM but <0.2 μM are marked with “++.”)
Cc1nc(C)n(-c2ccncc2NC(=O)c2c(N)nn3cc(F)cnc23)n1 [I-N-218, 2-amino-N-(4-(3,5-dimethyl-1H-1,2,4-triazol-1-yl)pyridin-3-yl)-6-fluoropyrazolo[1,5-a]pyrimidine-3-carboxamide] | + (Compounds with a Cisplatin sensitization value >0.2 μM but <5 μM are marked with “+.”)
Nc1nn2cc(F)cnc2c1C(=O)Nc1cnccc1-n1ccnc1C(F)(F)F [I-N-219, 2-amino-6-fluoro-N-(4-(2-(trifluoromethyl)-1H-imidazol-1-yl)pyridin-3-yl)pyrazolo[1,5-a]pyrimidine-3-carboxamide] | +++ (Compounds with a Cisplatin sensitization value of <0.02 μM are marked with “+++.”)
CC1(C)CCCN1c1ccncc1NC(=O)c1c(N)nn2cc(F)cnc12 [I-N-220, 2-amino-N-(4-(2,2-dimethylpyrrolidin-1-yl)pyridin-3-yl)-6-fluoropyrazolo[1,5-a]pyrimidine-3-carboxamide] | ++ (Compounds with a Cisplatin sensitization value >0.02 μM but <0.2 μM are marked with “++.”)
CS(=O)(=O)C1CCCN(c2ccncc2NC(=O)c2c(N)nn3cc(F)cnc23)C1 (centres unmarked) [I-N-221, 2-amino-6-fluoro-N-(4-(3-(methylsulfonyl)piperidin-1-yl)pyridin-3-yl)pyrazolo[1,5-a]pyrimidine-3-carboxamide] | ++ (Compounds with a Cisplatin sensitization value >0.02 μM but <0.2 μM are marked with “++.”)
Nc1nn2cc(F)cnc2c1C(=O)Nc1cnccc1N1CC(=O)N2CCCC2C1 (centres unmarked) [I-N-222, 2-amino-6-fluoro-N-(4-(4-oxohexahydropyrrolo[1,2-a]pyrazin-2(1H)-yl)pyridin-3-yl)pyrazolo[1,5-a]pyrimidine-3-carboxamide] | ++ (Compounds with a Cisplatin sensitization value >0.02 μM but <0.2 μM are marked with “++.”)
Cc1ccnn1-c1ccncc1NC(=O)c1c(N)nn2cc(F)cnc12 [I-N-223, 2-amino-6-fluoro-N-(4-(5-methyl-1H-pyrazol-1-yl)pyridin-3-yl)pyrazolo[1,5-a]pyrimidine-3-carboxamide] | ++ (Compounds with a Cisplatin sensitization value >0.02 μM but <0.2 μM are marked with “++.”)
CN1C[C@@H]2CCN(c3ccncc3NC(=O)c3c(N)nn4cc(F)cnc34)C[C@@H]2C1=O [I-N-224, 2-amino-6-fluoro-N-(4-((3aR,7aR)-2-methyl-3-oxohexahydro-1H-pyrrolo[3,4-c]pyridin-5(6H)-yl)pyridin-3-yl)pyrazolo[1,5-a]pyrimidine-3-carboxamide] | + (Compounds with a Cisplatin sensitization value >0.2 μM but <5 μM are marked with “+.”)
Cc1ccn(-c2ccncc2NC(=O)c2c(N)nn3cc(F)cnc23)n1 [I-N-225, 2-amino-6-fluoro-N-(4-(3-methyl-1H-pyrazol-1-yl)pyridin-3-yl)pyrazolo[1,5-a]pyrimidine-3-carboxamide] | ++ (Compounds with a Cisplatin sensitization value >0.02 μM but <0.2 μM are marked with “++.”)
Nc1nn2cc(F)cnc2c1C(=O)Nc1cnccc1N1CCC2(CC1)COC2 [I-N-226, N-(4-(2-oxa-7-azaspiro[3.5]nonan-7-yl)pyridin-3-yl)-2-amino-6-fluoropyrazolo[1,5-a]pyrimidine-3-carboxamide] | +++ (Compounds with a Cisplatin sensitization value of <0.02 μM are marked with “+++.”)
CN1CCOCC1C(=O)N1CCN(c2c(F)cncc2NC(=O)c2c(N)nn3cc(F)cnc23)CC1 (centres unmarked) [I-N-227, 2-amino-6-fluoro-N-(5-fluoro-4-(4-(4-methylmorpholine-3-carbonyl)piperazin-1-yl)pyridin-3-yl)pyrazolo[1,5-a]pyrimidine-3-carboxamide] | +++ (Compounds with a Cisplatin sensitization value of <0.02 μM are marked with “+++.”)
Nc1nn2cc(F)cnc2c1C(=O)Nc1cncc(F)c1N1CCN(CC(=O)N2CCC2)CC1 [I-N-228, 2-amino-N-(4-(4-(2-(azetidin-1-yl)-2-oxoethyl)piperazin-1-yl)-5-fluoropyridin-3-yl)-6-fluoropyrazolo[1,5-a]pyrimidine-3-carboxamide] | +++ (Compounds with a Cisplatin sensitization value of <0.02 μM are marked with “+++.”)
CN1CC2(CCN(c3c(F)cncc3NC(=O)c3c(N)nn4cc(F)cnc34)CC2)OC1=O [I-N-229, 2-amino-6-fluoro-N-(5-fluoro-4-(3-methyl-2-oxo-1-oxa-3,8-diazaspiro[4.5]decan-8-yl)pyridin-3-yl)pyrazolo[1,5-a]pyrimidine-3-carboxamide] | +++ (Compounds with a Cisplatin sensitization value of <0.02 μM are marked with “+++.”)
Nc1nn2cc(F)cnc2c1C(=O)Nc1cnccc1N1CCC(N2CCCC2=O)CC1 [I-N-230, 2-amino-6-fluoro-N-(4-(4-(2-oxopyrrolidin-1-yl)piperidin-1-yl)pyridin-3-yl)pyrazolo[1,5-a]pyrimidine-3-carboxamide] | +++ (Compounds with a Cisplatin sensitization value of <0.02 μM are marked with “+++.”)
CN1CC2(CCC1=O)CCN(c1ccncc1NC(=O)c1c(N)nn3cc(F)cnc13)CC2 [I-N-231, 2-amino-6-fluoro-N-(4-(2-methyl-3-oxo-2,9-diazaspiro[5.5]undecan-9-yl)pyridin-3-yl)pyrazolo[1,5-a]pyrimidine-3-carboxamide] | +++ (Compounds with a Cisplatin sensitization value of <0.02 μM are marked with “+++.”)
Nc1nn2cc(F)cnc2c1C(=O)Nc1cncc(F)c1N1CC(=O)N2CCCC2C1 (centres unmarked) [I-N-232, 2-amino-6-fluoro-N-(5-fluoro-4-(4-oxohexahydropyrrolo[1,2-a]pyrazin-2(1H)-yl)pyridin-3-yl)pyrazolo[1,5-a]pyrimidine-3-carboxamide] | ++ (Compounds with a Cisplatin sensitization value >0.02 μM but <0.2 μM are marked with “++.”)
CN1CCN2CCN(c3ccncc3NC(=O)c3c(N)nn4cc(F)cnc34)CC2C1=O (centres unmarked) [I-N-233, 2-amino-6-fluoro-N-(4-(8-methyl-9-oxohexahydro-1H-pyrazino[1,2-a]pyrazin-2(6H)-yl)pyridin-3-yl)pyrazolo[1,5-a]pyrimidine-3-carboxamide] | ++ (Compounds with a Cisplatin sensitization value >0.02 μM but <0.2 μM are marked with “++.”)
CN(C)C(=O)C1CN(c2ccncc2NC(=O)c2c(N)nn3cc(F)cnc23)CCO1 (centres unmarked) [I-N-234, 4-(3-(2-amino-6-fluoropyrazolo[1,5-a]pyrimidine-3-carboxamido)pyridin-4-yl)-N,N-dimethylmorpholine-2-carboxamide] | + (Compounds with a Cisplatin sensitization value >0.2 μM but <5 μM are marked with “+.”)

From US10787452B2 (Vertex Pharmaceuticals Incorporated, priority 2012, dated 2020)
